Laboratory results from ChEMBL document CHEMBL1133493, “N-acylated alpha-(3-pyridylmethyl)-beta-aminotetralin antagoinists of the human neuropeptide Y Y5 receptor” (Bioorg Med Chem Lett, 2000).

The compounds below were run against T1, Neuropeptide Y receptor type 5 (Homo sapiens, UniProt Q15761) (assay: Inhibition of binding of radioligand [125I]PYY to the human Neuropeptide Y receptor type 5, using a stably transfected HEK293 cell line).
T1 sequence (Q15761 whole entry): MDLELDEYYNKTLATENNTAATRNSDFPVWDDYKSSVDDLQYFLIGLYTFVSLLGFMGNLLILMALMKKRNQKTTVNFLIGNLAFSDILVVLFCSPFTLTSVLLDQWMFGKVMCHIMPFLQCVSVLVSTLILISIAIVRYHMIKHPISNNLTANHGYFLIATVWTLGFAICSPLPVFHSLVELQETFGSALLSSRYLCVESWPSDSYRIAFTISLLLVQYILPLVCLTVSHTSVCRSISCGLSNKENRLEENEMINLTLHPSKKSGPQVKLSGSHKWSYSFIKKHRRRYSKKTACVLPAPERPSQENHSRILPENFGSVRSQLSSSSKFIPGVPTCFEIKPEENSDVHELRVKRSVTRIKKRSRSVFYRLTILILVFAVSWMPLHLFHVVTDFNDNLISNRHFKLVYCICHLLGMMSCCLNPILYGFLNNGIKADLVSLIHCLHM
Assay type: cell-based
`O=C(Cc1ccccc1)NC[C@H]1CC[C@H](C(=O)NC2CCc3cc(F)ccc3C2Cc2cccnc2)CC1` (stereo partly specified) was tested, and the IC50 was 114 nM.
In the case of `O=C(NC[C@H]1CC[C@H](C(=O)NC2CCc3cc(F)ccc3C2Cc2cccnc2)CC1)c1ccccc1` (stereo partly specified), the IC50 is reported as 39 nM.
With `CC(C)(C)OC(=O)N[C@@H]1CCN(CC(=O)NC2CCc3cc(F)ccc3C2Cc2cccnc2)C1` (stereo partly specified) the IC50 was 30 nM.
`O=C(CN1CCC(n2c(O)nc3ccccc32)CC1)NC1CCc2cc(O)ccc2C1Cc1cccnc1` (stereo unspecified) was tested, and the IC50 was 6 nM.
`O=C(NC[C@H]1CC[C@H](C(=O)NC2CCc3cc(F)ccc3C2Cc2cccnc2)CC1)Oc1ccccc1` (stereo partly specified) was tested, and the IC50 was 31 nM.
In the case of `O=C(CN1CCC(n2c(O)nc3ccccc32)CC1)NC1CCc2cc(F)ccc2C1Cc1cccnc1` (stereo unspecified), the IC50 is reported as 25 nM.
Work on `COc1ccc2c(c1)CCC(NC(=O)CN1CCC(n3c(=O)[nH]c4ccccc43)CC1)C2Cc1cccnc1` (stereo unspecified) yielded an IC50 of 75 nM.
`O=C(CN1CCC(n2c(=O)[nH]c3ccccc32)CC1)NC1CCc2ccccc2C1Cc1cccnc1` (stereo unspecified) gave an IC50 of 22 nM.
Compound `O=C(CN1CCC(NC(=O)Oc2ccccc2)CC1)NC1CCc2cc(F)ccc2C1Cc1cccnc1` (stereo unspecified) has an IC50 of 52 nM.
Work on `CC(C)(C)OC(=O)N[C@H]1CCN(CC(=O)NC2CCc3cc(F)ccc3C2Cc2cccnc2)C1` (stereo partly specified) yielded an IC50 of 17 nM.
`CC(C)(C)OC(=O)NC[C@H]1CC[C@H](C(=O)NC2CCc3cc(F)ccc3C2Cc2cccnc2)CC1` (stereo partly specified) gave an IC50 of 16 nM.
`O=C(CN1CCC(NC(=O)c2ccccc2)CC1)NC1CCc2cc(F)ccc2C1Cc1cccnc1` (stereo unspecified) was tested, and the IC50 was 28 nM.
Work on `CC(C)(C)OC(=O)NC1CCN(CC(=O)NC2CCc3cc(F)ccc3C2Cc2cccnc2)C1` (stereo unspecified) yielded an IC50 of 45 nM.
`O=C(Cc1ccccc1)NC1CCN(CC(=O)NC2CCc3cc(F)ccc3C2Cc2cccnc2)CC1` (stereo unspecified) was tested, and the IC50 was 36 nM.
For `CC(C)(C)OC(=O)NC1CCN(CC(=O)NC2CCc3cc(F)ccc3C2Cc2cccnc2)CC1` (stereo unspecified), the IC50 was 37 nM.
`O=C(CN1CC[C@H](NC(=O)c2ccccc2)C1)NC1CCc2cc(F)ccc2C1Cc1cccnc1` (stereo partly specified) gave an IC50 of 26 nM.
`CC(C)(C)NC(=O)NC1CCN(CC(=O)NC2CCc3cc(F)ccc3C2Cc2cccnc2)CC1` (stereo unspecified) showed an IC50 of 140 nM.
In the case of `O=C(CN1CCC(NC(=O)Nc2ccccc2)CC1)NC1CCc2cc(F)ccc2C1Cc1cccnc1` (stereo unspecified), the IC50 is reported as 236 nM.
With `O=C(NC[C@H]1CC[C@H](C(=O)NC2CCc3cc(F)ccc3C2Cc2cccnc2)CC1)Nc1ccccc1` (stereo partly specified) the IC50 was 170 nM.

What follows are compounds tested against T2, Neuropeptide Y receptor type 5 (Homo sapiens) (UniProt Q15761) (assay: Antagonist potency by inhibition of peptide YY (PYY)-induced incorporation of [35S]GTP-gamma-S into membranes prepared from NPY5 receptor expressing cells, in the presence of 300 nM PYY).
T2 sequence (whole entry): T1 sequence (Q15761 whole entry)
Assay type: functional
`O=C(CN1CCC(n2c(O)nc3ccccc32)CC1)NC1CCc2cc(O)ccc2C1Cc1cccnc1` (stereo unspecified) gave a Kb of 21 nM.
Work on `O=C(CN1CCC(n2c(O)nc3ccccc32)CC1)NC1CCc2cc(F)ccc2C1Cc1cccnc1` (stereo unspecified) yielded a Kb of 21 nM.
